Columns and labels:
3T3-L1 pre-adipocytes [1] = assay: Lipolysis effect (Oil red O staining, neutral lipids); assay type: cell-based; details: 10 μg/mL, 8th day after differentiation, vs control group, FIGS. 4 and 5
Method: (§1) 3T3-L1 pre-adipocytes were cultured in Dulbecco's Modified Eagle's Medium (DMEM) containing 10% fetal bovine serum, 100 unit/mL penicillin and 10 μg/mL streptomycin at 37° C., 5% CO2 incubator. When 70 to 80% of cells were confluent, cells were pre-differentiated with DMEM containing dexamethazone, pioglitazone, IBMX (3-isobutyl-1-methylxanthin), insulin and FBS which are differentiation inducers, and then were differentiated with DMEM containing insulin, pioglitazone and FBS. After differentiation, lipids were matured with growth medium containing 10% FBS and insulin. Samples were dissolved in DMSO and treated in 10 μg/mL of the final concentration.
1×10^5 cells were dispensed into each well of 6-well plate and differentiated. On the 8th day after differentiation, media were removed, and cells were washed twice with ice-cold PBS. Cells were fixed with 10% formalin at room temperature for 1 hour, stained with 0.2 Oil red O (in isoprophanol) for 30 minutes, and then washed with distilled water. Isopropanol was added thereto to dissolve oil droplets, and then the content of neutral lipids was measured as absorbance at 490 nm. The results are represented in FIGS. 4 and 5.

male Sprague-Dawley rats [2] = assay: Liver tissue lipid content in rats fed experimental diet; assay type: in vivo; details: HF diet + 2% test material, 5 weeks, vs HFD group, FIG. 12
From the text: (§2) 28 male Sprague-Dawley rats (5 weeks, 145±5 g) were purchased from the Orient Company (Korea) as experimental animals. Rats were adapted with a lab-chow diet in pellet form for a week. Other obesity-induction groups except the normal group (NC) were fed high fat diet ad libitum for 5 weeks to induce obesity, and then rats were divided into four groups (7 rats per group) including the normal group and bred for 5 weeks as represented in FIG. 13.
AIN-76 diet (Teklad, USA) was used as a base of the experimental diet. Test materials were added at the level of 2% of high fat diet. In the CLA group and N-CLA group, 2% of CLA and N-CLA were added, respectively, while reducing corn oil. Experimental diet and water were supplied ad libitum. […] Body weight and the amount of diet intake were measured at constant time at 2-day intervals during the overall experimental period. Feed efficiency ratio (FER) was calculated by dividing the amount of body weight gain during the experimental period with the amount of diet intake during the same period, and the results are represented in Table 16.
(§3) After breeding, rats were fasted for 12 hours and then primarily anesthetized with ether. […] Liver was isolated, collected, rapidly frozen in liquid nitrogen and stored at −70° C. until sample analysis for measurement of enzyme activity and lipid quantification. […]

male Sprague-Dawley rats [3] = assay: Organ and white adipose tissue weight in rats fed experimental diet; assay type: in vivo; details: HF diet + 2% test material, 5 weeks
From the text: as §2
(§4) AIN-76 diet (Teklad, USA) was used as a base of the experimental diet. Test materials were added at the level of 2% of high fat diet. In the CLA group and N-CLA group, 2% of CLA and N-CLA were added, respectively, while reducing corn oil. Experimental diet and water were supplied ad libitum. During the breeding period, the experimental diets were kept in a 4° C. refrigerator. Each of the animals was placed in an empty cage under a specific environmental condition, at 25±2° C. with a relative humidity of 60±5%, a lighting cycle of 12 hr light/12 hr dark. Body weight and the amount of diet intake were measured at constant time at 2-day intervals during the overall experimental period. Feed efficiency ratio (FER) was calculated by dividing the amount of body weight gain during the experimental period with the amount of diet intake during the same period, and the results are represented in Table 16.
After breeding, rats were fasted for 12 hours and then primarily anesthetized with ether. […] Collected blood was centrifuged at 3,000×g, 4° C. for 15 minutes to obtain serum, and then obtained serum was stored at −70° C. until sample analysis. Organ tissues (liver, heart, kidney, epididymal white adipose tissue and perirenal white adipose tissue) of the experimental animals were washed with PBS (phosphate buffered saline) several times, and then weighed after removing surface moisture. Liver was isolated, collected, rapidly frozen in liquid nitrogen and stored at −70° C. until sample analysis for measurement of enzyme activity and lipid quantification. The results of measuring the weight of epididymal white adipose tissue and perirenal white adipose tissue per unit body weight are represented in FIG. 10.

[4] = tested on: leptin secreted from adipocytes; assay: Leptin secretion (ELISA); assay type: cell-based, mouse; details: 10 μg/mL, FIG. 8
Method: 3T3-L1 pre-adipocytes were cultured in Dulbecco's Modified Eagle's Medium (DMEM) containing 10% fetal bovine serum, 100 unit/mL penicillin and 10 μg/mL streptomycin at 37° C., 5% CO2 incubator. When 70 to 80% of cells were confluent, cells were pre-differentiated with DMEM containing dexamethazone, pioglitazone, IBMX (3-isobutyl-1-methylxanthin), insulin and FBS which are differentiation inducers, and then were differentiated with DMEM containing insulin, pioglitazone and FBS. After differentiation, lipids were matured with growth medium containing 10% FBS and insulin. Samples were dissolved in DMSO and treated in 10 μg/mL of the final concentration. An experiment was carried out to check whether the secretion amount of leptin, which is known as an appetite-related hormone, is regulated. The amount of leptin secreted from adipocytes was measured by enzyme-linked immunosorbent assay (ELISA) on media collected after treatment of adipocytes with sample. 100 μl of rabbit anti-mouse leptin IgG was aliquoted into an ELISA plate. […] Color development was elicited by the use of alkaline phosphatase conjugated substrate kit, and then absorbance at 490 nm was measured by an ELISA reader (SUNRISE, TECAN, Austria). […]

male Sprague-Dawley rats [5] = assay: Body weight, diet intake and FER in high fat diet obesity-induced rats; assay type: in vivo; details: HF diet + 2% test material
From the text: as §2, §4

male Sprague-Dawley rats [6] = assay: Serum cholesterol and neutral lipid in rats fed experimental diet; assay type: in vivo; details: HF diet + 2% test material, 5 weeks, FIG. 11
From the text: as §2, §4, §3
Quantification of total serum cholesterol was performed by using a test solution (Asanpharm Co., Korea) utilizing Allain et al. (1974)'s enzyme method. […] Thus, to quantify both CE and free cholesterol, CE was converted into fatty acid and free cholesterol by cholesterol esterase. […] H2O2 was mixed with peroxidase, phenol and 4-amino-antipyrine to emit red color, and then absorbance at 500 nm was measured. […]
The content of HDL-cholesterol was measured with kit reagent (Asanpharm Co., Korea). […]

3T3-L1 pre-adipocytes [7] = assay: Glycerol quantification (free glycerol reagent); assay type: cell-based; details: 10 μg/mL, medium after 24 hours treatment, FIG. 7
Method: as §1
Glycerol was quantified with an enzyme reaction method by using free glycerol reagent (Sigma, USA). 10 μl of medium, collected after treatment of cells with sample for 24 hours was added to 0.8 mL of Free glycerol reagent which was pre-warmed at 37° C., and then the reaction of the mixture was carried out in 37° C. water bath for 5 minutes. For quantification of glycerol, standard glycerol (25 μg/10 μl) was reacted in the same manner as above, and then absorbance at 540 nm was measured. The content of glycerol was calculated with the following formula.

3T3-L1 pre-adipocytes [8] = assay: Adipogenesis inhibitory effect (Oil red O staining); assay type: cell-based; details: Mus musculus, 10 μg/mL, treated with MDI medium 48 hours, 8th day after differentiation, FIG. 6, read-out: Content of neutral lipids decreased compared with the control group (adipogenesis inhibitory effect)
Method: as §1, with “concentration. 1×10^5 cells were dispensed into each well of 6-well plate. When 70% of cells were confluent, cells were treated with MDI medium (differentiation medium) and each sample at the same time, then incubated for 48 hours. On the 8th day after differentiation, the content of neutral lipids was measured with Oil red O staining. The results are represented in FIG. 6.” for “concentration.”

3T3-L1 pre-adipocytes [9] = assay type: cell-based; details: mouse, 24 h, 10 μg/mL
Method: as §1
1×10^4 pre-adipocytes were dispensed into each well of 96-well plate, and each sample was treated. Then cells were incubated at 37° C., 5% CO2 incubator for 24 hours. After 24 hours, MTT (in phosphate buffered saline, final concentration was […]) was treated, and then cells were incubated for 4 hours. Formed formazan crystal was dissolved with DMSO:ethanol (1:1) and absorbance at 540 nm was measured by a microplate reader (SUNRISE, TECAN, Austria). Cell viability was determined by the ratio of absorbance value of sample treating group to absorbance value of control group, and the results are represented in FIG. 3. […] Thus, there is no statistically significant difference from that of the control group.

| Compound | Content of neutral lipids (lipolysis effect) (3T3-L1 pre-adipocytes [1]) | Content of neutral lipids in liver tissue (male Sprague-Dawley rats [2]) | Content of total cholesterol in liver tissue (male Sprague-Dawley rats [2]) | Organ Weight: Heart (male Sprague-Dawley rats [3]) [mg/g B.W.] | Organ Weight: Kidney (male Sprague-Dawley rats [3]) [mg/g B.W.] | Organ Weight: Liver (male Sprague-Dawley rats [3]) [mg/g B.W.] | Weight of epididymal white adipose tissue and perirenal white adipose tissue per unit body weight (male Sprague-Dawley rats [3]; vs HFD group, FIG. 10) | Amount of leptin secretion decreased compared with the control group [4] [%] | Body weight in the 5th week (male Sprague-Dawley rats [5]; 5th week, FIG. 9) | Body Weight Gain (male Sprague-Dawley rats [5]; 5 weeks) [g/day] | FER (food efficiency ratio) = body weight gain/food intake (male Sprague-Dawley rats [5]; 5 weeks) | Food Intake (male Sprague-Dawley rats [5]; 5 weeks) [g/day] | Body weight change during the experiment period (male Sprague-Dawley rats [5]; weeks 2 onward, vs HFD group, FIG. 9) | Content of serum neutral lipid (triglyceride, TG) (male Sprague-Dawley rats [6]) | Serum total cholesterol (TC) (male Sprague-Dawley rats [6]; vs HFD group) | Serum low density lipid (LDL) (male Sprague-Dawley rats [6]; vs HFD group, calculated by Friedewald method) | Content of glycerol (secretion of glycerol, lipolysis) (3T3-L1 pre-adipocytes [7]) | inhibition at 10 µg/mL (3T3-L1 pre-adipocytes [8]) [%] | Cell viability (3T3-L1 pre-adipocytes [9]) [%] |
| --- | --- | --- | --- | --- | --- | --- | --- | --- | --- | --- | --- | --- | --- | --- | --- | --- | --- | --- | --- |
| conjugated linoleic acid [CLA] | tendency of decreasing neutral lipids | statistically significant decrease compared with the HFD group | statistically significant decrease compared with the HFD group | 2.43 ± 0.17 | 5.35 ± 0.24 | 44.69 ± 2.57 | slightly lighter than in the HFD group without statistical significance | 8.3 | not different from that of the HFD group with statistical significance | 2.89 ± 0.55 | 0.11 ± 0.02 | 28.18 ± 0.21 | lower than in the HFD group from the 2nd week to the 4th week | lower than HFD group with statistical significance | decreased compared with the HFD group with statistical significance | decreased compared with the HFD group with statistical significance | tendency of increasing the secretion of glycerol | – | – |
| CCCCCCCCCCC[C@@H](C[C@@H]1OC(=O)[C@H]1CCCCCC)OC(=O)[C@H](CC(C)C)NC=O [Orlistat] | tendency of decreasing neutral lipids | – | – | – | – | – | – | 11.6 | – | – | – | – | – | – | – | – | 1.57 µg/mL | 12.5 | 103 |
